Data taken from PubChem BioAssay AID1259408 (Genetic Toxicology Data Bank (GENE-TOX), 2018).
Activity calls are given as the source filed them. How the calls were made is not given here.

Test system: GENE-TOX genotoxicity assays, various organisms and cells
Experiment: GENE-TOX mutagenicity studies
Settings: for call: Assay Type: In vivo carcinogenicity studies
[1] = Species/Cell Type: Saccharomyces cerevisiae, Assay Type: Mitotic recombination or gene conversion, Assay Code: YEC+, Evaluation Type: Evaluation A (Pre-1980)
[2] = Species/Cell Type: Chinese hamster ovary (CHO) cells, Assay Type: Forward gene mutation at the HPRT locus, Assay Code: CHO+, Evaluation Type: Evaluation B (Post-1980)
[3] = Species/Cell Type: Allium cepa, Assay Type: Chromosome aberrations, Assay Code: ALCT, Evaluation Type: Evaluation A (Pre-1980)
[4] = Species/Cell Type: Arabidopsis species, Assay Type: Gene mutation, Assay Code: ARM+, Evaluation Type: Evaluation A (Pre-1980)
[5] = Species/Cell Type: Vicia faba, Assay Type: Chromosome aberrations, Assay Code: VIC+, Evaluation Type: Evaluation A (Pre-1980)
[6] = Species/Cell Type: Salmonella typhimurium (one or more of the five standard strains: TA98, TA100, TA1535, TA1537, and TA1538), Assay Type: Histidine reverse gene mutation, Ames assay, Assay Code: SAL+, Evaluation Type: Evaluation A (Pre-1980)
[7] = Species/Cell Type: Mammalian polychromatic erythrocytes, Assay Type: Micronucleus test, chromosome aberrations, Assay Code: MNTT, Evaluation Type: Evaluation A (Pre-1980)
[8] = Species/Cell Type: Salmonella typhimurium (one or more of the five standard strains: TA98, TA100, TA1535, TA1537, and TA1538), Assay Type: Histidine reverse gene mutation, Ames assay, Assay Code: SALT, Evaluation Type: Evaluation A (Pre-1980)
[9] = Species/Cell Type: Human lymphocytes, Assay Type: Sister-chromatid exchange (SCE) in vitro, Assay Code: SCL+, Evaluation Type: Evaluation B (Post-1980)
[10] = Species/Cell Type: Human, Assay Type: Sister-chromatid exchange (SCE) in vitro, Assay Code: SC1+, Evaluation Type: Evaluation B (Post-1980)

COC(=O)Nc1nc2ccccc2[nH]1 was tested, and the mutagenic call (Species/Cell Type: Allium cepa, Assay Type: Chromosome aberrations, Assay Code: ALC+, Evaluation Type: Evaluation A (Pre-1980)) was “active; positive”, the mutagenic call (Species/Cell Type: Aspergillus nidulans, Assay Type: Aneuploidy, chromosome aberrations, Assay Code: ASN+, Evaluation Type: Evaluation A (Pre-1980)) was “active; positive” and the mutagenic call (Species/Cell Type: Aspergillus nidulans, Assay Type: Mitotic recombination, Assay Code: ASGT, Evaluation Type: Evaluation A (Pre-1980)) was “no conclusion”. For the same compound, the mutagenic call (Species/Cell Type: Human lymphocytes, Assay Type: Sister-chromatid exchange (SCE) in vitro, Assay Code: SCL+D, Dose Response: With dose response, Evaluation Type: Evaluation B (Post-1980)) was “active; positive”, the mutagenic call (Species/Cell Type: Human, Assay Type: Sister-chromatid exchange (SCE) in vitro, Assay Code: SC1+D, Dose Response: With dose response, Evaluation Type: Evaluation B (Post-1980)) was “active; positive” and the mutagenic call (Species/Cell Type: Mouse, Sex: Female, Assay Type: Spot test, gene mutation, Assay Code: MST+, Evaluation Type: Evaluation A (Pre-1980)) was “active; positive”. For the same compound, the mutagenic call [1] was “active; positive” and the mutagenic call (Species/Cell Type: Saccharomyces cerevisiae, Assay Type: Mitotic recombination or gene conversion, Assay Code: YEH+, Evaluation Type: Evaluation A (Pre-1980)) was “active; positive”.

Cc1c2ccncc2c(C)c2c1[nH]c1ccc(N)cc12 was tested, and the mutagenic call [2] was “active; positive”.

Cc1cc(C)cc(O)c1 was tested, and the mutagenic call [3] was “no conclusion”.

CCOc1nc2c(c(=O)n(C)c(=O)n2C)n1C was tested, and the mutagenic call (Species/Cell Type: Allium cepa, Assay Type: Chromosome aberrations, Assay Code: ALC+D, Dose Response: With dose response, Evaluation Type: Evaluation A (Pre-1980)) was “active; positive”, the mutagenic call [4] was “active; positive” and the mutagenic call (Species/Cell Type: Human lymphocytes or leukocytes, Assay Type: Chromosome aberrations in vitro, Assay Code: CY7+, Evaluation Type: Evaluation A (Pre-1980)) was “active; positive”. For the same compound, the mutagenic call (Species/Cell Type: Nonhuman, Assay Type: Chromosome aberrations in vitro, Assay Code: CY&+, Evaluation Type: Evaluation A (Pre-1980)) was “active; positive”, the mutagenic call (Species/Cell Type: Nonhuman, Assay Type: Sister-chromatid exchange (SCE) in vitro, Assay Code: SC2-, Evaluation Type: Evaluation B (Post-1980)) was “inactive; negative” and the mutagenic call (Species/Cell Type: Nonhuman, Assay Type: Sister-chromatid exchange (SCE) in vitro, Assay Code: SC2T, Evaluation Type: Evaluation A (Pre-1980)) was “no conclusion”. For the same compound, the mutagenic call [5] was “active; positive”.

With CCCN(N=O)/C(N)=N/[N+](=O)[O-] the mutagenic call [4] was “active; positive” and the mutagenic call [6] was “active; positive”.

CNC[C@H](O)c1ccc(O)c(O)c1 was tested, and the mutagenic call [7] was “no conclusion” and the mutagenic call (Species/Cell Type: Mouse, Sex: Male, Assay Type: Sperm morphology, Assay Code: SPI-, Evaluation Type: Evaluation A (Pre-1980)) was “inactive; negative”.

With C[n+]1c(-c2ccc(N)cc2)c2cc(N)ccc2c2ccc(N)cc21 the mutagenic call [6] was “active; positive”.

In the case of CS(=O)(=O)OCC(O)C(O)COS(C)(=O)=O (stereo unspecified), the mutagenic call [3] is reported as “no conclusion”, the mutagenic call [4] is reported as “active; positive” and the mutagenic call (Species/Cell Type: Vicia faba, Assay Type: Chromosome aberrations, Assay Code: VIC+D, Dose Response: With dose response, Evaluation Type: Evaluation A (Pre-1980)) is reported as “active; positive”.

CC[C@@]1(O)C[C@H](O[C@H]2C[C@H](NC)[C@H](O)[C@H](C)O2)c2c(cc3c(c2O)C(=O)c2c(O)cccc2C3=O)[C@H]1C(=O)OC was tested, and the mutagenic call [8] was “no conclusion”.

ClCCBr was tested, and the mutagenic call [2] was “active; positive” and the mutagenic call (Species/Cell Type: Escherichia coli polA (W3119 vs P3478), Assay Type: Rec-assay, DNA effects (bacterial DNA repair), Assay Code: RE1+, Evaluation Type: Evaluation A (Pre-1980)) was “active; positive”.

With CCC1CCCCN1CCNc1ccc(CO)c2sc3ccccc3c(=O)c12 (stereo unspecified) the mutagenic call (Species/Cell Type: Mouse lymphoma (L5178Y) cells, Assay Type: Forward gene mutation at the thymidine kinase (TK) locus, chromosome aberrations, Assay Code: L51+, Evaluation Type: Evaluation A (Pre-1980)) was “active; positive”.

C1=Cc2cc3ccc4cccc5ccc(c2CC1)c3c45 was tested, and the mutagenic call (Species/Cell Type: Mouse prostate cells, Assay Type: Cell transformation, Assay Code: CTM-, Evaluation Type: Evaluation A (Pre-1980)) was “inactive; negative”.

With Clc1cc(N2CC2)nc(N2CC2)n1 the mutagenic call (Species/Cell Type: Aspergillus nidulans, Assay Type: Forward gene mutation, Assay Code: ASF+, Evaluation Type: Evaluation A (Pre-1980)) was “active; positive”.

For CC(C)CC=O, the mutagenic call [9] was “active; positive” and the mutagenic call [10] was “active; positive”.

With CC(C)(C)OO the mutagenic call (Species/Cell Type: Neurospora crassa, Assay Type: Reverse gene mutation, Assay Code: NER+, Evaluation Type: Evaluation A (Pre-1980)) was “active; positive”, the mutagenic call [1] was “active; positive” and the mutagenic call [5] was “active; positive”.

In the case of C[C@@H]1C[C@@H]([C@H](O)CC2CC(=O)NC(=O)C2)C(=O)[C@@H](C)C1, the mutagenic call (Species/Cell Type: Drosophila melanogaster, Assay Type: Aneuploidy, whole sex chromosome loss, chromosome aberrations, Assay Code: DACT, Evaluation Type: Evaluation A (Pre-1980)) is reported as “no conclusion”, the mutagenic call (Species/Cell Type: Escherichia coli polA (W3110 vs P3478), Assay Type: Rec-assay, DNA effects (bacterial DNA repair), Assay Code: RE2+, Evaluation Type: Evaluation A (Pre-1980)) is reported as “active; positive” and the mutagenic call (Species/Cell Type: Escherichia coli polA (W3119 vs P3478), Assay Type: Rec-assay, DNA effects (bacterial DNA repair), Assay Code: RE1T, Evaluation Type: Evaluation A (Pre-1980)) is reported as “no conclusion”. For the same compound, the mutagenic call [7] was “no conclusion”, the mutagenic call (Species/Cell Type: Mouse, Sex: Male, Assay Type: Sperm morphology, Assay Code: SPI+, Evaluation Type: Evaluation A (Pre-1980)) was “active; positive” and the mutagenic call (Species/Cell Type: Neurospora crassa, Assay Type: Aneuploidy, chromosome aberrations, Assay Code: NEN-, Evaluation Type: Evaluation A (Pre-1980)) was “inactive; negative”. For the same compound, the call (Species/Cell Type: Nonhuman, Assay Code: CCGT, Evaluation Type: Evaluation A (Pre-1980)) was “no conclusion”, the mutagenic call (Species/Cell Type: Nonhuman, Assay Type: Sister-chromatid exchange (SCE) in vitro, Assay Code: SC2T, Evaluation Type: Evaluation B (Post-1980)) was “no conclusion” and the mutagenic call [5] was “active; positive”.

In the case of CCN(CC)N=Nc1ccccc1, the mutagenic call (Species/Cell Type: Mammalian polychromatic erythrocytes, Assay Type: Micronucleus test, chromosome aberrations, Assay Code: MNT+, Evaluation Type: Evaluation A (Pre-1980)) is reported as “active; positive” and the call (Species/Cell Type: Nonhuman, Assay Code: CCG+L, Evaluation Type: Evaluation A (Pre-1980)) is reported as “active; positive”.

OCc1ccccc1 was tested, and the mutagenic call (Species/Cell Type: Escherichia coli polA (W3119 vs P3478), Assay Type: Rec-assay, DNA effects (bacterial DNA repair), Assay Code: RE1-, Evaluation Type: Evaluation A (Pre-1980)) was “inactive; negative”.

For CCc1cccc(CC)c1N(COC)C(=O)CCl, the mutagenic call (Species/Cell Type: Saccharomyces cerevisiae, Assay Type: Mitotic recombination or gene conversion, Assay Code: YEC+*, Activation: With metabolic activation, Evaluation Type: Evaluation A (Pre-1980)) was “active; positive”.

In the case of C/C(=N\O)c1ccc([N+](=O)[O-])s1, the mutagenic call [8] is reported as “no conclusion”.

In the case of OC1C=Cc2cc3ccc4cccc5ccc(c2C1O)c3c45 (stereo unspecified), the mutagenic call (Species/Cell Type: Mouse prostate cells, Assay Type: Cell transformation, Assay Code: CTM+, Evaluation Type: Evaluation A (Pre-1980)) is reported as “active; positive”.

For CCCCCC(=O)C(CCCC)c1oc(=O)c(CCCC)c(O)c1CCCC (stereo unspecified), the mutagenic call (Species/Cell Type: Human lymphocytes, Assay Type: Sister-chromatid exchange (SCE) in vitro, Assay Code: SCLT, Evaluation Type: Evaluation B (Post-1980)) was “no conclusion” and the mutagenic call (Species/Cell Type: Human, Assay Type: Sister-chromatid exchange (SCE) in vitro, Assay Code: SC1T, Evaluation Type: Evaluation B (Post-1980)) was “no conclusion”.

In the case of COc1ccc2nc3cc(Cl)ccc3c(NCCCNCCO)c2n1, the mutagenic call (Species/Cell Type: Chinese hamster ovary (CHO) cells, Assay Type: Forward gene mutation at the HPRT locus, Assay Code: CHOT, Evaluation Type: Evaluation B (Post-1980)) is reported as “no conclusion”.

With COc1cc(O)ccc1O the mutagenic call [3] was “no conclusion”.

O=S(O)(O)=S was tested, and the mutagenic call (Species/Cell Type: Allium cepa, Assay Type: Chromosome aberrations, Assay Code: ALC-, Evaluation Type: Evaluation A (Pre-1980)) was “inactive; negative”.

For CCC(=O)Oc1ccc(/C(CC)=C(\CC)c2ccc(OC(=O)CC)cc2)cc1, the mutagenic call [9] was “active; positive”, the mutagenic call [10] was “active; positive” and the mutagenic call (Species/Cell Type: Nonhuman, Assay Type: Sister-chromatid exchange (SCE) in vivo, Assay Code: SC3T, Evaluation Type: Evaluation B (Post-1980)) was “no conclusion”. The mutagenic call (Species/Cell Type: Saccharomyces cerevisiae, Assay Type: Aneuploidy, chromosome aberrations, Assay Code: YEN+, Evaluation Type: Evaluation A (Pre-1980)) was “active; positive”.

In the case of Cc1c(N)cccc1N, the call (Species/Cell Type: Nonhuman, Assay Code: CCG-, Evaluation Type: Evaluation A (Pre-1980)) is reported as “inactive; negative”.
